From patent publication US9393229B2, “Method for treating abnormal polyglutamine-mediated disease” (NATIONAL TAIWAN NORMAL UNIVERSITY, priority 2013, dated 2016) come the findings set out here.

The term IC50 denotes the point on the concentration scale where inhibition reaches its midpoint.

The subject of data set [1] is HSF1 promoter. The data set is described as follows: Triple fluorescent reporter cells, HSF1 promoter activity. The format is cell-based, human. As to conditions: 100 nM-100 μM, 24 hours. The source says: (§1) Referring to three references (Zhang Y, Koushik S, Dai R, Mivechi N F, Journal of Biological Chemistry, vol. 273, no. 49, pp. 32514-32521, 1998; He M, Guo H, Yang X, Zhou L, Zhang X, Cheng L, Zeng H, Hu F B, Tanguay R M, Wu T, PLoS One, vol. 5, no. 3, e9684, 2010; and Wu Y R, Wang C K, Chen C M, Hsu Y, Lin S J, Lin Y Y, Fung H C, Chang K H, Lee-Chen G J, Human Genetics, vol. 114, no. 3, pp. 236-241, 2004), a triple fluorescent reporter plasmid was constructed in pAmCyan1-N1 with mCherry, ZsYellow1 and AmCyan1 fluorescent reporters driven by heat shock transcription factor1 (HSF1, −360˜+2, with the translation initiation A as +1), heat shock cognate protein (HSPA8, −1140˜+38, driving constitutively expressed HSP70) and heat-inducible HSP70 chaperone (HSPA1A, −273˜+215, driving heat-inducible HSP70) promoters, respectively. The fragment containing the HSF1, HSPA8 and HSPA1A driven reporters was removed with AseI and NotI restriction enzymes and used to replace an AseI-NotI fragment in pcDNA5/FRT/TO plasmid (Invitrogen). The resulting triple fluorescent reporter plasmid was used to generate triple fluorescent reporter cells by targeted insertion into Flp-In™-293 cells, according to the supplier's instructions (Invitrogen). The cells were selected by medium containing 5 μg/mL blasticidin S and 100 μg/mL hygromycin.
(§2) The three fluorescence colors were analyzed simultaneously using high-content analysis (HCA) system (ImageXpressMICRO, Molecular Devices), with excitation/emission wavelengths at […], 531/540 (ZsYellow1) and […].

The test system of data set [2] is HSPA8 promoter. Nature of the data set: Triple fluorescent reporter cells, HSPA8 promoter activity. As to conditions: 100 nM-100 μM, 24 hours. The class given is cell-based, human.
Text: as §1, §2

The subject of data set [3] is HSPA1A promoter. The data set is described as follows: Triple fluorescent reporter cells, HSPA1A promoter activity. As to conditions: 100 nM-100 μM, 24 hours. The class given is cell-based, human.
Text: as §1, §2

Data set [4] concerns SCA17 mouse cerebellar slice culture. Nature of the data set: SCA17 mouse cerebellar slice culture, Purkinje cell aggregation. The format is cell-based. As for the experimental part:
Cerebellum was separated from p7 SCA17 mice and transferred to ice-cold medium containing 50% basal medium eagle (Invitrogen), 25% Hank's buffered salt solution (Invitrogen), 25% horse serum (Invitrogen), 0.5% D-glucose (Sigma), 1 mM GlutaMAX I (Invitrogen), 100 U/mL penicillin (Invitrogen) and 100 μg/mL streptomycin (Invitrogen). The cerebellum was separated from the other brain regions in ice-cold medium, and the hemisphere was then cut into 350 μm parasagittal sections with a vibratome (VT1200S, Leica). To improve the survival rate of cerebellar slices, we continuously bubbled the medium with 95% O2 and 5% CO2 during the sectioning. The slices were then cultured on 0.4 μm pore size culture plate inserts (Millipore) in six-well plates. All treatments were applied to the slices at day 2. After culture for 7 days, cells were immunostained with primary antibody [IP3R-1 (for Purkinje cells), 1:1000, Santa Cruz; 1TBP18 (for aggregation), 1:30000, QED Bioscience], fluorescence-conjugated secondary antibody (1:500, Invitrogen) and DAPI (1:10000, Sigma). The staining results were observed by confocal microscope (DMRE, TCS SP2, Leica).
To further confirm neuroprotective potential of the indole compounds, we applied indole and NC001-8 to the SCA17 mouse cerebellar primary and slice cultures, respectively. […]

Data set [5] is described as follows: in vitro. As to conditions: human, HEK-293 cells.
Description: (§3) Human embryonic kidney HEK-293 cells (ATCC No. CRL-1573) were cultivated in Dulbecco's modified Eagle's medium (DMEM) containing 10% fetal bovine serum (FBS). Human neuroblastoma SH-SY5Y cells (ATCC No. CRL-2266) were maintained in DMEM F12 supplemented with 10% FBS. Cells were cultivated at 37° C. incubator containing 5% CO2 and cell proliferation was measured based upon the reduction of the tetrazolium salt, 3,[4,5-dimethylthiazol-2-yl]-2,5-diphenyl-tetrazolium bromide (MTT). […] After one day, 20 μL MTT (5 mg/mL in PBS, Sigma) was added to cells and incubated for 2 hours. The absorbance of the purple formazan dye was measured at 570 nm by a Bio-Tek μtQuant Universal Microplate Spectrophotometer.
A short description of data set [6]: in vitro. As to conditions: human, SH-SY5Y cells.
Description: as §3
The test system of data set [7] is LC3. Nature of the data set: LC3-II/LC3-I ratio (autophagy) in 293 ATXN3/Q75 cells, Western blot. As to conditions: 293 ATXN3/Q75 cells +Dox 6 days, 200 nM; +Dox alone 59%. The class given is cell-based, human. In general terms: In western blotting, separated proteins are transferred to a membrane and probed.
Description: Total proteins were prepared using lysis buffer containing 50 mM Tris-HCl, 150 mM NaCl, 1 mM EDTA, 1 mM EGTA, 0.1% SDS and 0.5% sodium deoxycholate, 1% Triton X-100, and protease inhibitor cocktail (Calbiochem). Proteins (25 μg) were separated on 10% SDS-polyacrylamide gel electrophoresis and blotted on to nitrocellulose membranes by reverse electrophoresis. After blocking, the membrane was probed with antibody to HSF1 (1:1000 dilution, Abnova), HSPA8 (1:500 dilution, Santa Cruz), HSPA1A (1:500 dilution, Santa Cruz), GFP (1:500 dilution, Santa Cruz), LC3 (1:3000 dilution, MBL International), TBP (N-12) (1:500 dilution, Santa Cruz), β-actin (1:5000 dilution, Millipore) or GAPDH (1:1000 dilution, MDBio) at 4° C. overnight. Then the immune complexes were detected by horseradish peroxidase-conjugated goat anti-mouse (Jackson ImmunoResearch) or goat anti-rabbit (Rochland) IgG antibody (1:5000 dilution, GeneTex) and chemiluminescent substrate (Millipore).
Data set [8] deals with 293 ATXN3/Q75-GFP cells. Nature of the data set: ATXN3/Q75 aggregation assay (high content analysis). The format is cell-based, human. As to conditions: at 100 nM; 6 days doxycycline and oxaliplatin. How it is done: Then, doxycycline (10 μg/mL, BD) was added to the medium in each well to induce ATXN3/Q75-GFP expression for 6 days. […] Then, cells were stained with Hoechst 33342 (0.1 μg/mL, Sigma) and aggregation percentage was assessed by high content analysis (HCA) system (ImageXpressMICRO, Molecular Devices), with excitation/emission wavelengths at 482/536 (EGFP).

For data set [9], the system named is SH-SY5Y cells. The data set is described as follows: MTT cytotoxicity against SH-SY5Y cells. Particulars: read-out: IC50 (cytotoxicity) against SH-SY5Y cells; MTT assay, 24 hours. In general terms: Tetrazolium dyes change colour on reduction, which living cells bring about.
Description: as §3

Where only a bound is given, the exact number is not on record here.

Take `O=C1CCc2[nH]c3ccccc3c21` [NC001-8, 3,4-dihydrocyclopenta[b]indol-1(2H)-one]: in data set [1], the HSF1 promoter activity result was “same trend of enhancement”. In data set [2], the HSPA8 promoter activity result is given as “same trend of enhancement”. Further, the HSPA1A promoter activity entry in data set [3] is on record as “same trend of enhancement”. Further, the “reduction of Purkinje cell aggregation” value in [4] (10 μM) amounted to 16%. In addition, the 50% inhibitory concentration (IC50) at 24 h in data set [5] is above 1000 µM; in data set [6], 390 µM.

Turning to `c1ccc2[nH]ccc2c1` [indole], the HSF1 promoter activity entry in [1] is “same trend of enhancement”. The HSPA8 promoter activity entry in data set [2] was “same trend of enhancement”. Further, the HSPA1A promoter activity result in data set [3] is given as “same trend of enhancement”. The “reduction of Purkinje cell aggregation” value in data set [4] (10 nM) stood at 28%. In addition, the IC50 at 24 h was above 1000 µM in [5] and 680 µM in data set [6].

For `CO[C@H]1C[C@@H]2CC[C@@H](C)[C@@](O)(O2)C(=O)C(=O)N2CCCC[C@H]2C(=O)O[C@H]([C@H](C)C[C@@H]2CC[C@@H](O)[C@H](OC)C2)CC(=O)[C@H](C)/C=C(\C)[C@@H](O)[C@@H](OC)C(=O)[C@H](C)C[C@H](C)/C=C/C=C/C=C/1C` [rapamycin], in data set [7], the LC3-II/LC3-I ratio is on record as 98%.

For “geranylgeranylacetone [GGA, reference compound]”, in data set [8], the “ATXN3/Q75 aggregation as compared to untreated cells (100%)” value turned out to be 85%. Moreover, the HSF1 promoter activity result in data set [1] is “enhanced”. Besides, in data set [2], the HSPA8 promoter activity entry is reported as “enhanced”. Besides, the HSPA1A promoter activity entry in [3] is “enhanced”. Moreover, the IC50 in data set [9] amounted to 1000 µM.

In the case of `O=C(CCCCCCC(=O)Nc1ccccc1)NO` [SAHA, suberoylanilide hydroxamic acid], the “ATXN3/Q75 aggregation as compared to untreated cells (100%)” value in data set [8] is 85%.
